{"source": "patent EP0106793A1", "about": "“7-Alpha-alkyl-17-alpha-pregn-4-ene-21,17-carbolactones and -21-carboxylic acid salts and procedures for manufacturing them and pharmaceutical preparations containing them” (SCHERING AKTIENGESELLSCHAFT, priority 1982, dated 1984)", "system": "aldosterone", "assay": "antialdosterone effect, experimental model by Hollmann", "assay_type": "in vivo", "conditions": "relative to spironolactone = 1", "description": "The antialdosterone effect was determined and measured in an experimental model by Hallmann (G. Hollmann et al, Tubular Effects and Renal Elimination of Spirono- lactones, Naunyn-Schmiedebergs Arch. Exp. Path. Pharmak. 247 (1964), p 419; P. Marx, Renal Effects of d-aldosterone and Its Antagonist Spironolactone, Diss. Med. Fak. FU Berlin, 1966 whose disclosure is incorporated by references herein).", "data": [{"compound": "CC(=O)S[C@@H]1CC2=CC(=O)CC[C@]2(C)[C@H]2CC[C@@]3(C)[C@@H](CC[C@@]34CCC(=O)O4)[C@H]12", "note": "[spironolactone]", "values": [{"measurement": "relative values of the degree of antialdosterone effect", "result": 1}]}]}
